The text below walks through data of patent US6855843B2, “Inhibitors of α4 mediated cell adhesion” (Tanabe Seiyaku Co., Ltd., priority 1998, dated 2005).

Counter-ions that a name gives are not always drawn.

Test system in the first series: not given
Experiment: not given
Conditions: not given
Broadly, the melting point is the temperature, or range, at which the solid turns liquid. `CNc1ccc(C(=O)N[C@@H](Cc2ccc(-c3ccccc3OC)cc2)C(=O)O)c(Cl)c1` yielded a melting point of 82.8 °C.

In turn, `CCOC(=O)[C@H](Cc1ccc(-c2c(OC)cc(CN3CCN(C)CC3)cc2OC)cc1)NC(=O)c1c(F)cccc1F` (as salt: HCl) [Example 356] gave a melting point of 226 °C.

Consider `COc1cccc(OC)c1-c1ccc(C[C@H](NC(=O)c2c(Cl)cc(-c3ccn[nH]3)cc2Cl)C(=O)O)cc1` (as salt: TFA) [Example 304, N-[4-(5-Pyrazolyl)-2,6-dichlorobenzoyl)-4-(2,6-dimethoxyphenyl)-L-phenylalanine], for which the melting point came out at 156 °C.

The compound `CCOC(=O)[C@H](Cc1ccc(-c2c(OC)cc(CN3CCOCC3)cc2OC)cc1)NC(=O)c1c(Cl)cccc1Cl.Cl` registered a melting point of 177.5 °C.

For the next series, the target named is T1, α4β7 (adhesion of RPMI cells to CS-1) (Homo sapiens, UniProt P13612+P26010).
T1 construct: endogenous in cells
T1 sequence (P13612 34-1032): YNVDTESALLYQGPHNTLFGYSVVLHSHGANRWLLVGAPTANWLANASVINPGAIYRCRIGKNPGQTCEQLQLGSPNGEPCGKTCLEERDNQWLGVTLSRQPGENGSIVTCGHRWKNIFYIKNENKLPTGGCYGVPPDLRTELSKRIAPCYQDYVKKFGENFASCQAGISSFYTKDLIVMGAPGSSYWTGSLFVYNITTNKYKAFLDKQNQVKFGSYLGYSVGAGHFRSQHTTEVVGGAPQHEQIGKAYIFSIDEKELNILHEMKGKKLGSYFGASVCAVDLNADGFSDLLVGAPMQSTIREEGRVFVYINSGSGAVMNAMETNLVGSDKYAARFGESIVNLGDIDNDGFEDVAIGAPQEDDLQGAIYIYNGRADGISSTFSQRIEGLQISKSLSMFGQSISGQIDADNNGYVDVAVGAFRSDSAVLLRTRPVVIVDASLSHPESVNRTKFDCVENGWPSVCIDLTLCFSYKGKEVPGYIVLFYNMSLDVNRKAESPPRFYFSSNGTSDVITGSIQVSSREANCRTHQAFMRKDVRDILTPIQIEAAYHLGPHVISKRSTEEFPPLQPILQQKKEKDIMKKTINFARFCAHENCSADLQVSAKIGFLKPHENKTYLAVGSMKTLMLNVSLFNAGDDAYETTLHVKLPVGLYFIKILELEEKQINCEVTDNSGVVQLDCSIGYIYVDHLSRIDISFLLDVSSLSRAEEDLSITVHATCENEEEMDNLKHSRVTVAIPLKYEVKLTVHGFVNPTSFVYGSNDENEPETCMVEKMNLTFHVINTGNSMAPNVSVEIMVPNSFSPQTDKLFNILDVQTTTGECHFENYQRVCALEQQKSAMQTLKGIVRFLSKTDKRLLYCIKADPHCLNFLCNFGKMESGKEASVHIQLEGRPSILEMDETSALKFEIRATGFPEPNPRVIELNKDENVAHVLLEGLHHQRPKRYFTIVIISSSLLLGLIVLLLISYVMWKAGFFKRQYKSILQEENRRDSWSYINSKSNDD
T1 sequence (P26010 20-798): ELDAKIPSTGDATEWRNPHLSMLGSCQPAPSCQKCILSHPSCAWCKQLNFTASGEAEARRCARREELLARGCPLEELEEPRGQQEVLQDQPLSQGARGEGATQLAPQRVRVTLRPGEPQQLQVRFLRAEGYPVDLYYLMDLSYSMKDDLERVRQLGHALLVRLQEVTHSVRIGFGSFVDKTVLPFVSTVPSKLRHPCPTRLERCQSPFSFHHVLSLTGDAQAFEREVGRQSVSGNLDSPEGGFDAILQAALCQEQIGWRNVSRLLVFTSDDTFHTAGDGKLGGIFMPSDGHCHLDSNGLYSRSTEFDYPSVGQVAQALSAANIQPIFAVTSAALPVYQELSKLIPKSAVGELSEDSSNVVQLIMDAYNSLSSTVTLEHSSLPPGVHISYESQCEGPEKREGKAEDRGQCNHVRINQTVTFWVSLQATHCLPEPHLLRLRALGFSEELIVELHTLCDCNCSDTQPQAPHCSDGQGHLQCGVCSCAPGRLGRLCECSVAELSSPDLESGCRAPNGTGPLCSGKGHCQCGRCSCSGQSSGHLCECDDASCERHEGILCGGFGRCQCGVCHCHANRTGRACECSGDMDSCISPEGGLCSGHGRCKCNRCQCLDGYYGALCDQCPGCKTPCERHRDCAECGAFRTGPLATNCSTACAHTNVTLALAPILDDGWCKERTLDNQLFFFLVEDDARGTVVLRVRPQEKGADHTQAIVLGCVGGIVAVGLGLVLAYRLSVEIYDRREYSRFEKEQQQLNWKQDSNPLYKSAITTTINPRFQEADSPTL
In words: RPMI-CS-1 cell adhesion assay. In kind it is cell-based. Particulars: adhesion of RPMI B-cell line (expresses α4β7) to CS-1 peptide coated microwells; read-out: RPMI-CS-1 IC50 value range.
What is called IC50 is the midpoint of a concentration-inhibition curve. For `O=C(O)COc1ccccc1-c1ccc(C[C@H](NC(=O)c2c(Cl)cccc2Cl)C(=O)O)cc1` [Example 32, N-(2,6-Dichlorobenzoyl)-4-[2-(carboxymethoxy)-phenyl]-L-phenylalanine], the IC50 is < 300 nM.

Take `CN1CCCC1CCOc1ccccc1-c1ccc(C[C@H](NC(=O)c2c(Cl)cccc2Cl)C(=O)O)cc1` (some centres unmarked) [Example 43]: the IC50 was in the range of 1000 to 5000 nM.

With `COc1ccccc1-c1ccc(C[C@H](NC(=O)c2ccc(S(C)(=O)=O)cc2Cl)C(=O)O)cc1` [Example 211], the IC50 was < 300 nM.

For `CNS(=O)(=O)c1ccccc1-c1ccc(C[C@H](NC(=O)c2c(Cl)cccc2Cl)C(=O)O)cc1` [Example 20, N-(2,6-Dichlorobenzoyl)-4-[2-(N-methylsulfamoyl)phenyl]-L-phenylalanine], the IC50 is < 300 nM.

Regarding `COc1ccccc1-c1ccc(C[C@H](NC(=O)c2ccc(NS(=O)(=O)c3ccc(C(F)(F)F)cc3)cc2Cl)C(=O)O)cc1` [Example 187, N-[2-Chloro-4-[[(4-trifluoromethylphenyl)sulfonyl]amino]benzoyl]-4-(2-methoxyphenyl)-L-phenylalanine], the IC50 is < 300 nM.

For the compound `COc1cccc(OC)c1-c1ccc(C[C@H](NC(=O)c2cccc(C)c2)C(=O)O)cc1` [Example 281], the IC50 lay in the range of 1000 to 5000 nM.

For the compound `O=C(N[C@@H](Cc1ccc(-c2ccsc2)cc1)C(=O)O)c1c(Cl)cccc1Cl` [Example 128], the IC50 lay within 300 to 1000 nM.

Turning to `O=Cc1sccc1-c1ccc(C[C@H](NC(=O)c2c(Cl)cccc2Cl)C(=O)O)cc1` [Example 214, N-(2,6-Dichlorobenzoyl)-4-(2-formyl-3-thienyl)-L-phenylalanine], the IC50 lay within 300 to 1000 nM.

In the case of `COc1cc(OCc2c(Cl)cccc2Cl)cc(OC)c1-c1ccc(C[C@H](NC(=O)c2c(Cl)cccc2Cl)C(=O)O)cc1` [Example 221, N-(2,6-Dichlorobenzoyl)-4-[2,6-dimethoxy-4-[(2,6-dichlorophenyl)methoxy]phenyl]-L-phenylalanine], the IC50 was 1000 to 5000 nM.

On to `COc1ccccc1-c1ccc(C[C@H](NC(=O)c2ccc(C(N)=O)cc2Cl)C(=O)O)cc1` [Example 178, N-[2-Chloro-4-carbamoylbenzoyl]-4-(2-methoxyphenyl)-L-phenylalanine], for which the IC50 is < 300 nM.

Take `CS(=O)(=O)NC(=O)c1ccccc1-c1ccc(C[C@H](NC(=O)c2c(Cl)cccc2Cl)C(=O)O)cc1` [Example 61, N-(2,6-Dichlorobenzoyl)-4-[2-[(N-methanesulfonyl)carbamoyl]phenyl]-L-phenylalanine]: the half-maximal inhibitory concentration (IC50) is > 5000 nM.

As for `Cc1ccccc1-c1ccc(C[C@H](NC(=O)c2c(Cl)cccc2Cl)C(=O)O)cc1` [Example 112], the IC50 was in the range of 300 to 1000 nM.

On to `O=C(O)c1ccc(C(=O)N[C@@H](Cc2ccc(-c3ccccc3O)cc2)C(=O)O)cc1` [Example 81], for which the IC50 was > 5000 nM.

For `O=C(N[C@@H](Cc1ccc(-c2ccccc2OCc2ccncc2)cc1)C(=O)O)c1c(Cl)cccc1Cl` [Example 39], the IC50 fell in the range of 300 to 1000 nM.

Regarding `O=C(NCCN1CCOCC1)c1ccccc1-c1ccc(C[C@H](NC(=O)c2c(Cl)cccc2Cl)C(=O)O)cc1` [Example 59, N-(2,6-Dichlorobenzoyl)-4-[2-[N-(2-morpholinoethyl)carbamoyl]phenyl]-L-phenylalanine], the IC50 is 1000 to 5000 nM.

Regarding `COC(=O)[C@H](Cc1ccc(-c2ccccc2OCC#N)cc1)NC(=O)c1c(Cl)cccc1Cl` [Example 33, N-(2,6-Dichlorobenzoyl)-4-[2-(cyanomethoxy)phenyl]-L-phenylalanine methyl ester], the IC50 was 300 to 1000 nM.

As to `COc1cccc(OC)c1-c1ccc(C[C@H](NC(=O)c2c(Cl)cccc2Cl)C(=O)O)cc1C(C)O` (some centres unmarked) [Example 131], the IC50 was < 300 nM.

On to `COc1cccc(OC)c1-c1ccc(C[C@H](NC(=O)c2ccc(NS(C)(=O)=O)cc2Cl)C(=O)O)cc1` [Example 77], for which the IC50 is < 300 nM.

In the case of `COc1ccccc1-c1ccc(C[C@H](NC(=O)c2ccc(NC(=S)NC(C)C)cc2Cl)C(=O)O)cc1` [Example 195], the IC50 is 300 to 1000 nM.

Take `COc1cc(OCCN(C)C)cc(OC)c1-c1ccc(C[C@H](NC(=O)c2c(Cl)cccc2Cl)C(=O)O)cc1` [Example 223, N-(2,6-Dichlorobenzoyl)-4-[2,6-dimethoxy-4-[2-(N,N-dimethylamino)ethoxy]phenyl]-L-phenylalanine]: the IC50 is < 300 nM.

With `CCOc1cccc(-c2ccc(C[C@H](NC(=O)c3c(Cl)cccc3Cl)C(=O)O)cc2)c1` [Example 120], the IC50 was > 5000 nM.

`COc1ccccc1-c1ccc(C[C@H](NC(=O)C(=O)c2ccccc2)C(=O)O)cc1` [Example 95]: the IC50 was in the range of 1000 to 5000 nM.

As for `COc1ccccc1-c1ccc(C[C@H](NC(=O)c2c(Cl)cccc2Cl)C(=O)O)cc1C(C)=NO` [Example 351, N-(2,6-Dichlorobenzoyl)-3-[1-(hydroxyimino)ethyl]-4-(2-methoxyphenyl)-L-phenylalanine], the IC50 is < 300 nM.

As for `Nc1ccccc1-c1ccc(C[C@H](NC(=O)c2c(Cl)cccc2Cl)C(=O)O)cc1` [Example 23, N-(2,6-Dichlorobenzoyl)-4-(2-aminophenyl)-L-phenylalanine], the IC50 was 300 to 1000 nM.

For `COc1cc(CN2CCCC2)cc(OC)c1-c1ccc(C[C@H](NC(=O)c2c(Cl)cccc2Cl)C(=O)O)cc1` [Example 243], the IC50 was < 300 nM.

As for `COC(=O)[C@H](Cc1ccc(-c2ccccc2S(=O)(=O)NC(C)(C)C)cc1)NC(=O)c1c(Cl)cccc1Cl` [Example 15, N-(2,6-Dichlorobenzoyl)-4-[2-[N-(tert-butyl)sulfamoyl]phenyl]-L-phenylalanine methyl ester], the IC50 fell in the range of 300 to 1000 nM.

As to `O=C(N[C@@H](Cc1ccc(-c2ccccc2)cc1)C(=O)O)c1c(Cl)cccc1Cl` [Example 111], the IC50 was 1000 to 5000 nM.

In the case of `COc1ccccc1-c1ccc(C[C@H](NC(=O)c2ccccc2NC(=O)c2c(Cl)cccc2Cl)C(=O)O)cc1` [Example 106], the IC50 is 1000 to 5000 nM.

For the compound `N#Cc1sccc1-c1ccc(C[C@H](NC(=O)c2c(Cl)cccc2Cl)C(=O)O)cc1` [Example 219, N-(2,6-Dichlorobenzoyl)-4-(2-cyano-3-thienyl)-L-phenylalanine], the IC50 fell in the range of 300 to 1000 nM.

For the compound `CC(C)(C)NS(=O)(=O)c1ccccc1-c1ccc(C[C@H](NC(=O)c2c(Cl)cccc2Cl)C(=O)O)cc1` [Example 16, N-(2,6-Dichlorobenzoyl)-4-[2-[N-(tert-butyl)sulfamoyl]phenyl]-L-phenylalanine], the IC50 was < 300 nM.

`CCOC(=O)Nc1cc(C[C@H](NC(=O)c2c(Cl)cccc2Cl)C(=O)O)ccc1-c1ccccc1` [Example 344]: the IC50 lay in the range of 1000 to 5000 nM.
